Values after ≈ are worked out from the molar mass of the structure shown.
Key:
P-388 = assay: Effect in prolonging life of P-388 mice; assay type: in vivo, mouse; conditions: CDF1 mice, P-388 i.p., control 100
Method: Test Example 2: Effect in Prolonging the Life of Mouse with Cancer, and Acute Toxicity of Drugs
Using P-388 mice with cancer, the pharmacological efficacy of the aforementioned compounds was evaluated by comparing with a control to which no such compound had been added.
Animal Used: CDF1 Mice (6 mice/group)
Number of Incubated Cells: 10^6 cells/mouse
Days at which Drugs Were Administered: Days 1 and 5, or days 1 to 9
Quantities of Drugs Administered: When a drug was administered at days 1 and 5, the maximum dosed quantity was set at LD50 or 400 mg/kg/day; and when a drug was administered at days 1 to 9, the maximum dosed quantity was set at 1/2×LD50 or 200 mg/kg/day. The experiment was conducted with groups of mice being administered the respective drugs at 3 dose levels incuding the maximum level, 1/2 of the maximum level and 1/4 of the maximum level.
When the T/C %, i.e. the ratio of the survival time (days) of a treated group (administered with a certain drug) to the survival time of a control group (administered with no drug), was 120% or more for a synthesized substance and 130% or more for a natural substance, the drug was appraised as effective (P). The survival time of the group administered with no drug is normally about 10 days (median survival time). In the following Table, an indication of "T/C 0%" means that not less than three mice were dead due to toxicity within 5 days.

KB cells = assay: Effect in inhibiting growth of KB-cells (in vitro); assay type: cell-based; conditions: Homo sapiens, 72 h, drug added day 1, cells counted day 4, inhibition rate 50%, read-out: Concentration giving 50% growth inhibition (ED50; Inhibition Rate 50%)
Method: (1) Effect in Inhibiting Growth of KB-Cells
The KB-cell, one of the cancer-causing tumor cells, was incubated in an in vitro floating incubation system, and the pharmacological effects of the Compounds (4) and (5) were compared with a control to which the compounds had not been added.
KB Cells (derived from a human epidermoid carcinoma of the mouth).
Eagles minimal essential medium (MEM)-10% calf serum.
37° C. in a carbon dioxide gas incubator (5% CO2).
Day 0: The KB cells were diluted to 2×10^4 /ml medium. 3 ml of the thus diluted KB cell suspension was incubated on a 60 mm plastic dish, at 2 dishes per dose level.
Day 1: Each drug was added into each dish so that the drug content in each dish was adjusted, respectively, to 100, 30, 10, 3 and 1 μg/ml.
Day 4: The cells were stripped from the surface of each dish, and the number of cells was counted using a Kohlter's counter.
A substance or drug having an ED50 value of not more than 4 μg/ml for a synthesized product was appraised as an effective substance. Meanwhile, in evaluating the effect of inhibiting growth of KB-cells, the number of surviving cells was counted by a Kohlter's counter, and the counted number was compared to that of the control (without the addition of the Compound (1)) to find the concentration of the drug for inhibiting the growth by 50%, the thus found concentration being estimated as the ED50 value.

[1] = acridine derivatives, literature; cited from earlier work

Row | SMILES | Life Prolonging Rate (T/C) (P-388; Dosage 12.5 mg/kg) [%] | Life Prolonging Rate (T/C) (P-388; Dosage 25 mg/kg) [%] | Life Prolonging Rate (T/C) (P-388; Dosage 50 mg/kg) [%] | IC50 (KB cells) [µg/mL] | Life Prolonging Rate (T/C) (P-388; Dosage 100 mg/kg) [%] | Life Prolonging Rate (T/C) (P-388; Dosage 200 mg/kg) [%] | Life Prolonging Rate (T/C) (P-388; Dosage 400 mg/kg, T/C 0% means not less than three mice dead due to toxicity within 5 days) [%] | Anticancer effect [1]
1 | COc1cc(NS(C)(=O)=O)ccc1Nc1c2ccccc2nc2c1oc1ccccc12 [Compound 4, N-(4-((benzofuro(3,2-b)quinoline-11yl)amino)-3-methoxyphenyl)methane sulfoneamide] | 180 | 195 | 200 | 0.3 (≈ 0.692 µM) | – | – | – | –
2 | COc1cc(NS(C)(=O)=O)ccc1Nc1c2ccccc2nc2c1sc1ccccc12 [Compound 5, N-(4-((benzothieno(3,2-b)quinoline-11-yl)amino)-3-methoxyphenyl)methanesulfoneamide] | 138 | 170 | 170 | 0.3 (≈ 0.667 µM) | – | – | – | –
3 | COc1cc(NS(C)(=O)=O)ccc1Nc1c2c(nc3ccccc13)-c1ccccc1C2 [Compound 6] | 166 | – | 217 | < 0.3 | 240 | 60 | 0 | –
4 | COc1cc(NS(C)(=O)=O)ccc1Nc1c2ccccc2nc2ccccc12 [amsacrine, N-(4-(9-acridinylamino)-3-methoxyphenyl)-methanesulfoneamide] | – | – | – | – | – | – | – | most effective derivative
5 | COc1cc(NS(C)(=O)=O)ccc1Nc1c2c(nc3ccccc13)CCCC2 [tetrahydroamsacrine] | – | – | – | – | – | – | – | reduced anticancer effect

From US4826850A, “Quinoline base compound, process for the preparation thereof and anticancer agent containing the same as pharmacologically efficacious component” (Mect Corporation, priority 1986, dated 1989)
